Reference: patent US20100160356A1, “NOVEL CYCLOBUTYL COMPOUNDS AS KINASE INHIBITORS” (priority 2006, published 2010)

Assays:
TGFβR1 = target: T1, TGFβR1 (Homo sapiens, UniProt P36897); test: Inhibition of TGFβR1 (flashplate assay); type: biochemical; conditions: flashplate method
T1 sequence (P36897 34-503): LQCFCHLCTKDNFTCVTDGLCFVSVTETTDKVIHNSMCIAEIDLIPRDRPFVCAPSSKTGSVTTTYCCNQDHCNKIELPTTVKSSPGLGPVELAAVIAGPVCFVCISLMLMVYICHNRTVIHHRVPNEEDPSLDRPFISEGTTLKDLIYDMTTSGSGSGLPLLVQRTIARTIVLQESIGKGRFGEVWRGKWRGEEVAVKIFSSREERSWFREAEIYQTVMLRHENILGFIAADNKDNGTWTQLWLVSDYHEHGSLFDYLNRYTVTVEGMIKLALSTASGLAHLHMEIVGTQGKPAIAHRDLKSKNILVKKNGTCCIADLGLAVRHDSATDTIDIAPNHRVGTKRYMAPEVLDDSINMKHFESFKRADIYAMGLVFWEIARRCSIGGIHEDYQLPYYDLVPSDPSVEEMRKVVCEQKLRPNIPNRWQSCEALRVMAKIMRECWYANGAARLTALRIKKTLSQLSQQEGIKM
Method in brief: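 Kinase was incubated 45 min with 33P-ATP and biotinylated substrate, with or without test substances, then stopped with EDTA. Incorporated radioactivity was counted by scintillation in a flashplate format. IC50 values were calculated from the counts.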

VEGF-2 = VEGF-2 (Homo sapiens, UniProt P35968); test: Inhibition of VEGF-2 (flashplate assay); type: biochemical; conditions: flashplate method
Method in brief: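 Kinase incubated 3 hr at room temperature with ^33P-ATP and biotinylated poly(Glu, Tyr)4:1, with or without test substance. Stopped with EDTA, wells washed after 30 min; incorporated radioactivity counted by scintillation and IC50 calculated.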

insulin receptor (InsR) = target: T2, insulin receptor (InsR) (Homo sapiens, UniProt P06213); test: Inhibition of InsR (ELISA assay), insulin-stimulated autophosphorylation in cells; type: cell-based; conditions: human cells stimulated with insulin
T2 construct: endogenous in cells; host or cells: HepG2
Procedure: Cultivated human cells which express the insulin receptor (InsR) (for example HepG2) are stimulated using human insulin, the natural ligand of InsR. The stimulation induces autophosphorylation of tyrosine residues in the cytoplasmatic InsR domain, which triggers signal transduction cascades, which initiate various biological reactions of the cells. The amount of phosphorylated InsR is determined by a receptor-specific capture ELISA or an analogous LUMINEX assay. The InsR from cell lysates is bound to a 96-well ELISA plate or LUMINEX beads by means of a specific antibody (“capturing”), and the tyrosine phosphorylation is detected using a biotin-labelled anti-phosphotyrosine antibody and a streptavidin-peroxidase conjugate by a chemiluminescence method or by means of a fluorescence-labelled anti-phosphotyrosine antibody. For determination of the activity of kinase inhibitors, cells are pretreated with increasing concentrations of these compounds for 45 min and subsequently stimulated using insulin for 5 min. As internal control, the biological activity of the ligand insulin is checked, and a concentration series of a reference inhibitor is measured.

TIE2 = TIE2 (Homo sapiens, UniProt Q02763); test: Inhibition of TIE2 (flashplate assay); type: biochemical; conditions: flashplate method
Method in brief: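 Radiometric flashplate kinase assay: TIE2 incubated 3 h at room temperature with ³³P-ATP and biotinylated poly(Glu,Tyr) 4:1, with or without test compound. Reaction stopped with EDTA, wells washed, incorporated radioactivity counted by scintillation; IC50 calculated from the data.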

SGK1 = target: T3, SGK1 (Homo sapiens, UniProt O00141); test: Inhibition of SGK1 (flashplate assay); type: biochemical; conditions: flashplate method
T3 sequence (O00141 1-431): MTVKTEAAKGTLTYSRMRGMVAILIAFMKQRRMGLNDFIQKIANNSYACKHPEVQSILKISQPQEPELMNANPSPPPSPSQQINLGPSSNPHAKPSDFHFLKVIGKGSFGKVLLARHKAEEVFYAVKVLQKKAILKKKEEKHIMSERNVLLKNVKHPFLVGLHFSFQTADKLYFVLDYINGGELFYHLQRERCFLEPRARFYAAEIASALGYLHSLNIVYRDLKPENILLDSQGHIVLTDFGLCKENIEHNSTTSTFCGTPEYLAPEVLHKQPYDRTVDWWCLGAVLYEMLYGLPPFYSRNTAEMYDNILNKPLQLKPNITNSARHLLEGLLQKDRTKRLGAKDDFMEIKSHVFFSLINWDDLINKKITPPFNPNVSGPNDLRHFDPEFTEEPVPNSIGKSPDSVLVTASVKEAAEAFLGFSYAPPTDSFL
Procedure: The test plates used are 384-well flashplate microtitre plates from Perkin Elmer (USA). The components of the kinase reaction are pipetted into the assay plate. The SGK1 kinase is incubated for 3 hr. with radioactively labelled ^33P-ATP in the presence and absence of test substances in a total volume of 100 μl at room temperature together with biotinylated poly(Glu, Tyr)4:1. The reaction is terminated using 25 μl of a 200 mM EDTA solution. After incubation for a further 30 min at room temperature, the supernatants are removed by suction, and the wells are washed three times with 100 μl of 0.9% NaCl solution each time. The radioactivity is measured using a Topcount scintillation counter (PerkinElmer, USA). IC50 values are calculated using the RS1 computer program.

Chain of TIE2 (Q02763 23-1124, species assumed): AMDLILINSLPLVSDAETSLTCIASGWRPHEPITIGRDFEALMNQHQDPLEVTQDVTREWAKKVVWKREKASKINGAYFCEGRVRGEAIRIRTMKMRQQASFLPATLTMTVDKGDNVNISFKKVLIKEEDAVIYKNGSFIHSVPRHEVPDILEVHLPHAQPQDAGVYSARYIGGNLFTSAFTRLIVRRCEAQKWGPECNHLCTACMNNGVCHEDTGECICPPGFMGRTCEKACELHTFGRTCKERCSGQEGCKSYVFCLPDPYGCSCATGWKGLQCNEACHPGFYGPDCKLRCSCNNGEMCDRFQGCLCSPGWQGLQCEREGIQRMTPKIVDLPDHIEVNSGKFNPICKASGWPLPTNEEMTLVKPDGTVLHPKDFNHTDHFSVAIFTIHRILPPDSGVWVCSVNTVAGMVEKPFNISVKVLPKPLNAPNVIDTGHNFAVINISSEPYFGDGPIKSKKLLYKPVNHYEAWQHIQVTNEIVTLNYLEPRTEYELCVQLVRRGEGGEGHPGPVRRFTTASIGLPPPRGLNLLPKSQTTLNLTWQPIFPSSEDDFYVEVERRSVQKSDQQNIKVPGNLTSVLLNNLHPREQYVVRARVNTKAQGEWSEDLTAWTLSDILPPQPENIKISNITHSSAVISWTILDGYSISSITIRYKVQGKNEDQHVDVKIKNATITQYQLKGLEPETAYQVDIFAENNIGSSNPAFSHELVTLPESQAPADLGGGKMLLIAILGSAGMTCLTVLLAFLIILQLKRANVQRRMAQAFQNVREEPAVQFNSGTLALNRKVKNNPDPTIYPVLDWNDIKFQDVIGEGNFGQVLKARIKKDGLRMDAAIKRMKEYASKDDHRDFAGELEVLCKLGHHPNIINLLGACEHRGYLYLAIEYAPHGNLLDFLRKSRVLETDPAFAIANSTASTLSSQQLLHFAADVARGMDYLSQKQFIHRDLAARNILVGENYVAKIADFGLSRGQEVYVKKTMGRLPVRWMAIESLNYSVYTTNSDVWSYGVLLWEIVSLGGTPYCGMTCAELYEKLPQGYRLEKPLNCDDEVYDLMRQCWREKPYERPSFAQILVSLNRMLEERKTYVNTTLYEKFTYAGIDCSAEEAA
Chain of VEGF-2 (P35968 20-1356): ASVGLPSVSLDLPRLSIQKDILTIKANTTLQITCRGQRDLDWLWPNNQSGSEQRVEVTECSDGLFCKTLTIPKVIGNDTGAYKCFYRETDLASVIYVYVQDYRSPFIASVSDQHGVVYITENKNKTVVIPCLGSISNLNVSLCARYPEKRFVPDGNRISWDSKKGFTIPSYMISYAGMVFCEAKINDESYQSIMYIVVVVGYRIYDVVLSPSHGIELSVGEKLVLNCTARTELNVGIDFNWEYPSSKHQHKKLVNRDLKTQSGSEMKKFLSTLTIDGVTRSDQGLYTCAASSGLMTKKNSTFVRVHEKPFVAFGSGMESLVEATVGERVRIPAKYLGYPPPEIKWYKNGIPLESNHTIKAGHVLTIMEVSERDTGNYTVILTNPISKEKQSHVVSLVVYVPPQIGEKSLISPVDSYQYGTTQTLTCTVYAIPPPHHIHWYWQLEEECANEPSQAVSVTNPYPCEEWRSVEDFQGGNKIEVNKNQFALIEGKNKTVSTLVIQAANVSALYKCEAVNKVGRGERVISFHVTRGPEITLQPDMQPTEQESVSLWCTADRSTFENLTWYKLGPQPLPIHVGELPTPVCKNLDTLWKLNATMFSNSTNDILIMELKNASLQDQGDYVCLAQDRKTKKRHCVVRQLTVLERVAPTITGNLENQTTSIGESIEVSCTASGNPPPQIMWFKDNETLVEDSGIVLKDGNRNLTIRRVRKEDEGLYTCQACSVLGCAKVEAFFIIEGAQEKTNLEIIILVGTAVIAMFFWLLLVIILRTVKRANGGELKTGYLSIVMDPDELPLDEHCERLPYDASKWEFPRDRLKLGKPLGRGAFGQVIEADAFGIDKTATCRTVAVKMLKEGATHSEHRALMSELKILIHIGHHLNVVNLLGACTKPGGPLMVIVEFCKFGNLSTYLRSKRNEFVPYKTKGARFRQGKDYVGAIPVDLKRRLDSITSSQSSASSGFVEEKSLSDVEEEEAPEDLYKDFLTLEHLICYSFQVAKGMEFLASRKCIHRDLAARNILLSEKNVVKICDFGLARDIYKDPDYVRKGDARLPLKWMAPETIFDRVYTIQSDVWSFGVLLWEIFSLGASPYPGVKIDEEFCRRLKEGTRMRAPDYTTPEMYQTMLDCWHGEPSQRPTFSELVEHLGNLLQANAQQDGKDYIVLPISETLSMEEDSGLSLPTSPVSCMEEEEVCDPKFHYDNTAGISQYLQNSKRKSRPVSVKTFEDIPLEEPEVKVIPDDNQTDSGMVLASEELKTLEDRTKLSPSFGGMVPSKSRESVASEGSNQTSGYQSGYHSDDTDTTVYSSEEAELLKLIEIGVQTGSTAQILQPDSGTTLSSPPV
T2 sequence (P06213 28-1382): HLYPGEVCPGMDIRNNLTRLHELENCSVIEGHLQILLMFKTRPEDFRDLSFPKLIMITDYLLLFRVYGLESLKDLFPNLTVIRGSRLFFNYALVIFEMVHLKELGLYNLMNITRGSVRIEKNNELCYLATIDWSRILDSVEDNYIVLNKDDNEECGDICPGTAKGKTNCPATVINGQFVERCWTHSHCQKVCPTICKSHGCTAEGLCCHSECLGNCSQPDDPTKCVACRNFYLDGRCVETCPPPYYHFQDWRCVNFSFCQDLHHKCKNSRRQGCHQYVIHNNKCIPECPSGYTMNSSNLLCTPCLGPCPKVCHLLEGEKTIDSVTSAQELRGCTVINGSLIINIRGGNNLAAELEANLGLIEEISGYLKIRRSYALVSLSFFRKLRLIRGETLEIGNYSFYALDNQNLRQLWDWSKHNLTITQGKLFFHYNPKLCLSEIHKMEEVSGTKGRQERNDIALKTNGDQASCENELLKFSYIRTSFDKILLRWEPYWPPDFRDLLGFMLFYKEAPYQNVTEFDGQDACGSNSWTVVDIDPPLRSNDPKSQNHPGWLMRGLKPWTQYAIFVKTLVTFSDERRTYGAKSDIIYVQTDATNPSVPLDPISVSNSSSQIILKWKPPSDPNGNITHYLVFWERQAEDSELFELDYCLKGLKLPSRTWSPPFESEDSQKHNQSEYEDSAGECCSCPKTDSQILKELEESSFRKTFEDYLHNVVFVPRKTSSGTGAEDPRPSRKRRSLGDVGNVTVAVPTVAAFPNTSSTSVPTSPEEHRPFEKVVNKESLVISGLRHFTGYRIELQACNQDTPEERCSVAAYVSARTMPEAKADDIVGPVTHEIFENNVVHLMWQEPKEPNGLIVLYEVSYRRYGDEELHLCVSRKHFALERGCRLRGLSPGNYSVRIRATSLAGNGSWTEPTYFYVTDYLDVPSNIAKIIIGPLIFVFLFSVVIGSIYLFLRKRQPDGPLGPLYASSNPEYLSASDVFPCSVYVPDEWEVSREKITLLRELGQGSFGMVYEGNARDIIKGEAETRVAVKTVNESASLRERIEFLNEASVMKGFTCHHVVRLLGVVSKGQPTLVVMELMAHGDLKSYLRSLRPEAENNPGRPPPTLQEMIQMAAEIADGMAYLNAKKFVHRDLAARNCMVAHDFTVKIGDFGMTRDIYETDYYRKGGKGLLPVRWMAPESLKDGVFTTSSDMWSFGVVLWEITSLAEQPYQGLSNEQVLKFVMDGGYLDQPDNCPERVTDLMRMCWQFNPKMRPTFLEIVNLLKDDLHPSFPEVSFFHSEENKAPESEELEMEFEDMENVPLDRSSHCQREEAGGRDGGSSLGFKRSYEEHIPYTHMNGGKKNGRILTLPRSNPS

## Nc1ncnc2c1c(-c1cccc(O)c1)cn2C1CC(CN2CCCC2)C1 (stereo not drawn) [Compound 1, 3-[4-amino-7-(3-pyrrolidin-1-ylmethylcyclobutyl)-7H-pyrrolo[2,3-d]pyrimidin-5-yl]phenol]
TGFβR1
  IC50: 120 nM
VEGF-2
  IC50: 180 nM
Insulin receptor (InsR)
  IC50: 2100 nM
TIE2
  IC50: 520 nM
other
  melting point: 193 to 194 °C

## Nc1ncnc2c1c(-c1cccc(O)c1)cn2C1CC(CN2CCCC2)C1 (stereo not drawn) [Compound 2, 3-[4-Amino-7-(3-pyrrolidin-1-ylmethylcyclobutyl)-7H-pyrrolo[2,3-d]pyrimidin-5-yl]phenol]
TGFβR1
  IC50: 140 nM
VEGF-2
  IC50: 195 nM
SGK1
  IC50: 7400 nM
TIE2
  IC50: 870 nM

## NCC1CC(n2cc(-c3ccc4[nH]ccc4c3)c3c(N)ncnc32)C1 (stereo not drawn) [Compound 3, 7-(3-Aminomethylcyclobutyl)-5-(1H-indol-5-yl)-7H-pyrrolo[2,3-d]pyrimidin-4-ylamine]
TGFβR1
  IC50: 180 nM
VEGF-2
  IC50: 10 nM
Insulin receptor (InsR)
  IC50: 12000 nM
TIE2
  IC50: 380 nM
other
  melting point: 142 to 144 °C

## NCC1CC(n2cc(-c3cc4ccccc4o3)c3c(N)ncnc32)C1 (stereo not drawn) [Compound 37]
TGFβR1
  IC50: 210 nM
VEGF-2
  IC50: 160 nM
SGK1
  IC50: 6100 nM
TIE2
  IC50: 1100 nM
